PubChem BioAssay (NCI)
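Method: 48-hour compound exposure of cells in 96-well plates, five concentrations, linear interpolation of endpoints. TGI: total growth inhibition.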

Experiments:
Assay in all cases: NCI anticancer screen, dose series, 48 h
U251 CNS = system: U251 CNS
LOX IMVI melanoma = system: LOX IMVI melanoma
SF-268 CNS = system: SF-268 CNS
SF-295 CNS = system: SF-295 CNS
MDA-N = system: MDA-N
NCI/ADR-RES ovarian = system: NCI/ADR-RES ovarian
SF-539 CNS = system: SF-539 CNS
CAKI-1 renal = system: CAKI-1 renal
SNB-19 CNS = system: SNB-19 CNS
EKVX NSCLC = system: EKVX NSCLC
HOP-92 NSCLC = system: HOP-92 NSCLC
HT29 colon = system: HT29 colon
ACHN renal = system: ACHN renal
786-0 renal = system: 786-0 renal
SNB-75 CNS = system: SNB-75 CNS
M14 melanoma = system: M14 melanoma
MDA-MB-231 breast = system: MDA-MB-231 breast
OVCAR-4 ovarian = system: OVCAR-4 ovarian
SK-MEL-2 melanoma = system: SK-MEL-2 melanoma
SW-620 colon = system: SW-620 colon
IGROV1 ovarian = system: IGROV1 ovarian
HCT-116 colon = system: HCT-116 colon
OVCAR-5 ovarian = system: OVCAR-5 ovarian
COLO 205 colon = system: COLO 205 colon
DU-145 prostate = system: DU-145 prostate
MALME-3M melanoma = system: MALME-3M melanoma
SK-MEL-5 melanoma = system: SK-MEL-5 melanoma
NCI-H226 lung = system: NCI-H226 lung
HOP-62 NSCLC = system: HOP-62 NSCLC
RPMI-8226 leukemia = system: RPMI-8226 leukemia
SR leukemia = system: SR leukemia
HCC-2998 colon = system: HCC-2998 colon
OVCAR-3 ovarian = system: OVCAR-3 ovarian
NCI-H522 lung = system: NCI-H522 lung
SK-MEL-28 melanoma = system: SK-MEL-28 melanoma
T-47D breast = system: T-47D breast
UO-31 renal = system: UO-31 renal
BT-549 breast = system: BT-549 breast
HCT-15 colon = system: HCT-15 colon
UACC-257 melanoma = system: UACC-257 melanoma
HS 578T breast = system: HS 578T breast
OVCAR-8 ovarian = system: OVCAR-8 ovarian
PC-3 prostate = system: PC-3 prostate
RXF 393 renal = system: RXF 393 renal
MDA-MB-435 = system: MDA-MB-435
TK-10 renal = system: TK-10 renal
CCRF-CEM leukemia = system: CCRF-CEM leukemia
SN12C renal = system: SN12C renal
K-562 leukemia = system: K-562 leukemia
MOLT-4 leukemia = system: MOLT-4 leukemia
A549 NSCLC = system: A549 NSCLC
NCI-H23 lung = system: NCI-H23 lung
HL-60(TB) leukemia = system: HL-60(TB) leukemia
A498 renal = system: A498 renal
SK-OV-3 ovarian = system: SK-OV-3 ovarian
UACC-62 melanoma = system: UACC-62 melanoma
KM12 colon = system: KM12 colon
MCF7 breast = system: MCF7 breast
LXFL 529 NSCLC = system: LXFL 529 NSCLC
DLD-1 colon = system: DLD-1 colon
DMS 273 small cell lung = system: DMS 273 small cell lung
KM20L2 colon = system: KM20L2 colon
NCI-H460 lung = system: NCI-H460 lung
M19-MEL melanoma = system: M19-MEL melanoma
DMS 114 small cell lung = system: DMS 114 small cell lung

Measured: TGI

CC1=NNC(=S)NCCCN2CCN(CCCNC(=S)NN=C(C)C=NNC(=S)NCCCN3CCN(CCCNC(=S)NN=C1)CC3)CC2
not listed: LXFL 529 NSCLC | DLD-1 colon | DMS 273 small cell lung | KM20L2 colon | NCI-H460 lung | M19-MEL melanoma | DMS 114 small cell lung
> 100 µM: all other assays above

O=C(O)C12CC3CC(C1)C2C=C3P(=O)(O)O (stereo unspecified)
not listed: MDA-N | NCI/ADR-RES ovarian | SF-539 CNS | SNB-19 CNS | 786-0 renal | MDA-MB-231 breast | DU-145 prostate | SK-MEL-5 melanoma | SR leukemia | T-47D breast | BT-549 breast | HS 578T breast | PC-3 prostate | MDA-MB-435 | A549 NSCLC | A498 renal | MCF7 breast
> 100 µM: all other assays above
